PubChem BioAssay (NCI)
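Step 1: Grow cells in 96-well plates. Step 2: Expose to compound for 48 hours at 5 concentrations. Step 3: Interpolate endpoints linearly; if unreached, use highest concentration. TGI marks complete inhibition of growth.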

Legend:
Assay in all cases: DTP human tumour cell line panel, 48 h
[1] = test system: 786-0 renal
[2] = test system: A498 renal
[3] = test system: ACHN renal
[4] = test system: CCRF-CEM leukemia
[5] = test system: HCC-2998 colon
[6] = test system: IGROV1 ovarian
[7] = test system: K-562 leukemia
[8] = test system: MDA-MB-435
[9] = test system: MDA-N
[10] = test system: NCI-H460 lung
[11] = test system: OVCAR-5 ovarian
[12] = test system: RXF 393 renal
[13] = test system: SF-539 CNS
[14] = test system: SK-MEL-2 melanoma
[15] = test system: SK-OV-3 ovarian
[16] = test system: SNB-19 CNS
[17] = test system: SNB-75 CNS
[18] = test system: SW-620 colon
[19] = test system: U251 CNS
[20] = test system: HT29 colon

| SMILES | TGI [1] | TGI [2] | TGI [3] | TGI [4] | TGI [5] | TGI [6] | TGI [7] | TGI [8] | TGI [9] | TGI [10] | TGI [11] | TGI [12] | TGI [13] | TGI [14] | TGI [15] | TGI [16] | TGI [17] | TGI [18] | TGI [19] | TGI [20] |
| --- | --- | --- | --- | --- | --- | --- | --- | --- | --- | --- | --- | --- | --- | --- | --- | --- | --- | --- | --- | --- |
| O=C(/C=C(\O)c1ccccc1)C(=O)NNc1ccc([N+](=O)[O-])cc1[N+](=O)[O-] | 25.9 µM | 70.4 µM | 66.5 µM | 43.5 µM | 30 µM | 38.2 µM | 95.1 µM | > 100 µM | 78.1 µM | 40.2 µM | 58.7 µM | 35 µM | 33.5 µM | > 100 µM | 41.6 µM | 74.6 µM | 30.9 µM | 34 µM | 28.1 µM |  |
| O=c1c2nn3c(=O)n(-c4ccccc4)c(=O)c3nn2c(=O)n1-c1ccccc1 | > 100 µM | > 100 µM | > 100 µM | > 100 µM | > 100 µM | > 100 µM | > 100 µM | > 100 µM | > 100 µM | > 100 µM | > 100 µM | > 100 µM | > 100 µM | > 100 µM | > 100 µM | > 100 µM | > 100 µM | > 100 µM | > 100 µM | > 100 µM |
| O=c1cc(NNc2ccccc2)[nH]c(=S)[nH]1 | > 100 µM | > 100 µM | > 100 µM | 88.6 µM | 50.5 µM | > 100 µM | 80.2 µM | > 100 µM | > 100 µM | > 100 µM | > 100 µM | > 100 µM | > 100 µM | 61.3 µM | > 100 µM | > 100 µM | > 100 µM | 49.5 µM | > 100 µM | > 100 µM |
| NC(=O)NNc1nc2ccccc2c(=O)n1NC(=O)C(=O)Nc1ccc(Cl)cc1Cl | > 100 µM | > 100 µM | > 100 µM | > 100 µM | > 100 µM | > 100 µM | > 100 µM | > 100 µM | > 100 µM | > 100 µM | > 100 µM | > 100 µM | > 100 µM | > 100 µM | > 100 µM | > 100 µM | > 100 µM | > 100 µM | > 100 µM | > 100 µM |
| COc1ccc2c(C)cc(N/N=C(\C)C=O)nc2c1 | 28.6 µM | 27.9 µM | 29.7 µM | 4 µM | 24.5 µM | 33.5 µM | 5.05 µM | 25.5 µM | 28.6 µM | 24.9 µM | 28.2 µM | 30.2 µM | 20.3 µM | 33.1 µM | 23.2 µM | 31.6 µM | 29.8 µM | 27.5 µM | 30.4 µM | 25 µM |
| COc1ccc2nc(N/N=C/C(C)=N/Nc3cc(C)c4cc(OC)ccc4n3)cc(C)c2c1 | 28 µM | > 80.9 µM | 55.3 µM | 5.45 µM | 47.1 µM | 47.1 µM | 9.81 µM | 62.1 µM | 55.5 µM | 32.5 µM | 49.5 µM | > 83.1 µM | 34.7 µM | > 82.1 µM | > 100 µM | 55.8 µM | 47.7 µM | 43.5 µM | 31.6 µM | 28.7 µM |
| C=CC/C=C/Cc1csc(C(C)(C)C(O)C/C=C/C(=C)CCNC(=O)OC)n1 (stereo not given) | > 100 µM | > 100 µM | > 100 µM | > 100 µM | > 100 µM | > 100 µM | > 81.5 µM | > 100 µM | > 100 µM | > 100 µM | > 100 µM | > 100 µM | > 100 µM | > 100 µM | > 100 µM | > 100 µM | > 83.8 µM | > 46.4 µM | > 100 µM | > 100 µM |
| CCSCCC(N)C(=O)O (stereo not given) | > 100 µM | > 100 µM | > 100 µM |  | > 100 µM | > 100 µM | > 100 µM | > 100 µM | > 100 µM | > 100 µM | > 100 µM | > 100 µM | > 100 µM | > 100 µM | > 100 µM | > 100 µM | > 100 µM | > 100 µM | > 100 µM | > 100 µM |
| NC1CC(=O)c2sc(I)cc21 (stereo not given) | > 100 µM | > 100 µM | > 100 µM | > 100 µM | > 100 µM | > 100 µM | > 100 µM | > 100 µM | > 100 µM | > 100 µM | > 100 µM | > 100 µM | > 100 µM | > 100 µM | > 100 µM | > 100 µM | > 100 µM | > 100 µM | > 100 µM | > 100 µM |
| Cn1c(=S)[nH]c2sc3c(c2c1=O)CCSC3 | > 100 µM | > 100 µM | > 100 µM |  | > 100 µM | > 100 µM | > 100 µM | > 100 µM | > 100 µM | > 100 µM | > 100 µM | 14.7 µM | > 100 µM | > 100 µM | > 100 µM | > 100 µM | > 100 µM | > 100 µM | > 100 µM | > 100 µM |
| CC(=O)N1C(=O)/C(=C\C(=O)c2ccc([N+](=O)[O-])cc2)c2ccccc21 | 29.1 µM | > 100 µM | 29.6 µM | 16.9 µM | 36.7 µM | 53.9 µM | 36.5 µM | 61.2 µM | 49.2 µM | 39.9 µM | > 100 µM | > 100 µM | 49.8 µM | > 100 µM | > 100 µM | > 100 µM | 49.6 µM |  | 46.4 µM | 34.6 µM |
| O=S(=O)(O)c1ccc(O)c2ncc(Cl)cc12 | > 100 µM | > 100 µM | > 100 µM | > 100 µM | > 100 µM | > 100 µM | > 100 µM | > 100 µM | > 100 µM | > 100 µM | > 100 µM | > 100 µM | > 100 µM | > 100 µM |  | > 100 µM | > 100 µM | > 100 µM | > 100 µM | > 100 µM |
